Assay results published in US20250152719A1, “FUSED IMIDE DERIVATIVE” (Chia Tai Tianqing Pharmaceutical Group Co., Ltd., priority 2021, published 2025).

Key:
TMD8-BTK(C481S) cells = assay: Inhibitory activity on TMD8-BTK(C481S) cell proliferation (CCK-8); type: cell-based; conditions: 72 h, 72 h incubation
In short: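 Cells seeded at 8×10^4 cells/mL, incubated overnight, then treated in duplicate with compounds at 5000 nM-0.31 nM for 72 h. Viability by CCK-8 (4 h, absorbance 450 nm); IC50 from four-parameter dose-response fits.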

BTK(C481S) kinase = BTK(C481S) kinase (Homo sapiens (Human), UniProt Q06187, C481S); assay: Inhibitory activity on BTK(C481S) kinase; type: biochemical; conditions: ATP 10 μM
Sequence of BTK(C481S) kinase (Q06187 whole entry C481S): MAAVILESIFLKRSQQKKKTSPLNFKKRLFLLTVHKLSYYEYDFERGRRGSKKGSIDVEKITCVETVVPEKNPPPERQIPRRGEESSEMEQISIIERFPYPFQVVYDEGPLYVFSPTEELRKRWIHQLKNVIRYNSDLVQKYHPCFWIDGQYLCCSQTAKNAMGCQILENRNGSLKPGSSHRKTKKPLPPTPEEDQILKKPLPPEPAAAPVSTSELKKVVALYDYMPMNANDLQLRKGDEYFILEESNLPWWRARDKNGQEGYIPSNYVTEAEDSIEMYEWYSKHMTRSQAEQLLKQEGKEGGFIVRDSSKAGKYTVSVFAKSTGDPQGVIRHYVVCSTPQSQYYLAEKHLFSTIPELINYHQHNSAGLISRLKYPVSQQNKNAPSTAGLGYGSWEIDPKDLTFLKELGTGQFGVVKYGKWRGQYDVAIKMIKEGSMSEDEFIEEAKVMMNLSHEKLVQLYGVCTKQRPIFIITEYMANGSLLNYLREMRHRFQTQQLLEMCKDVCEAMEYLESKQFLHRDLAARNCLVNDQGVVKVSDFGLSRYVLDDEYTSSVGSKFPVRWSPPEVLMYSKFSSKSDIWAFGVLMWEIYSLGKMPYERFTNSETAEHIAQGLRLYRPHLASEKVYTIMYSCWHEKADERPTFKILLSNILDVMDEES
Experimental: The Assay Buffer was prepared, and the composition of the Assay Buffer was 50 mM Hepes (Gibco, 15630), 10 mM MgCl2, 2 mM DTT, 1 mM EGTA, and 0.010% Tween 20. BTK(C481S) kinase (Carna Biosciences, 08-547), ATP (Sigma, A7699), and ULight-poly GT (PE, TRF0100-M) working solutions were prepared using the Assay Buffer. EDTA and Eu-labeled anti-phosphotyrosine (PT66) antibody (PE, AD0069) working solutions were prepared using the Detection Buffer. 6 μL of BTK(C481S) kinase at the corresponding concentration (final concentration: 0.005 ng/μL) was added to the compound groups and the control group, while 6 μL of the Assay Buffer was added to the blank group, and then the compounds (with the concentration set to 1000 nM at the maximum, 4-fold dilution, 7 concentration gradients) were added using a nanoliter pipettor. The mixture was incubated at room temperature for 30 min, and then 4 μL of the mixture of ATP (final concentration: 10 μM) and ULight-poly GT (final concentration: 100 nM) was added. After incubation at room temperature for 2 h, 5 μL of EDTA (final concentration: 10 mM) was added to stop the reaction, and finally 5 μL of antibody (final concentration: 2 nM) was added. After incubation at room temperature for 1 h, signal values were detected at 665/615 nM, the four-parameter analysis was performed, the dose-response curves were fit, and IC50 was calculated.

BTK = BTK (Homo sapiens (Human), UniProt Q06187); assay: BTK degradation in OCI-LY10 cells (Total-BTK HTRF kit); type: cell-based; conditions: OCI-Ly10, OCI-LY10 cells, 24 (or 6) h incubation; maximum degradation rate
Sequence of BTK (Q06187 whole entry): as the sequence (Q06187 whole entry C481S) above, with S481C counted along it
In short: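 OCI-LY10 cells seeded overnight, then treated with compound at 100 nM-0.098 nM in duplicate for 24 (or 6) h. Lysates probed by Total-BTK HTRF (d2/Eu cryptate antibodies, overnight, room temperature), read at 665/620 nm; DC50 and Dmax from four-parameter dose-response fits.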

EGFR kinase = EGFR kinase (Homo sapiens (Human), UniProt P00533); assay: Inhibitory activity on EGFR kinase; type: biochemical; conditions: ATP 5 μM
Sequence of EGFR kinase (P00533 669-1210): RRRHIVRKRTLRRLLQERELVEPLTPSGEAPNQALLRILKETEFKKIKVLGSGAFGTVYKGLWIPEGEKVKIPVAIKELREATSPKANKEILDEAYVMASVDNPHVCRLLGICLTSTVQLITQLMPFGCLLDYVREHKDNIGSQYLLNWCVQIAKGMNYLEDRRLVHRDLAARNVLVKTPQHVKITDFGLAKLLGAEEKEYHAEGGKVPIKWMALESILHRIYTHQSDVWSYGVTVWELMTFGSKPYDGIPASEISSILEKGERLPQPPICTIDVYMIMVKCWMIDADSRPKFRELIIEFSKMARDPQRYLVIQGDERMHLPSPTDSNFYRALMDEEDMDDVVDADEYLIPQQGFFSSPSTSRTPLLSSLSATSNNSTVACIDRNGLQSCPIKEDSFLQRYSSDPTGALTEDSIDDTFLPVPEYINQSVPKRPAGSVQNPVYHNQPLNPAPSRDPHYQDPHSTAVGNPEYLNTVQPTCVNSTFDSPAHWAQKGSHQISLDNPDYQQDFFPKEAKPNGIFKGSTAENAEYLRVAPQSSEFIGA
Experimental: The Assay Buffer was prepared, and the composition of the Assay Buffer was 50 mM Hepes (Gibco, 15630), 10 mM MgCl2, 2 mM DTT, 1 mM EGTA, and 0.010% Tween 20. EGFR kinase (Carna, 08-115), ATP (Sigma, A7699), and ULight-poly GT (PE, TRF0100-M) working solutions were prepared using the Assay Buffer. EDTA and Eu-labeled anti-phosphotyrosine (PT66) antibody (PE, AD0069) working solutions were prepared using the Detection Buffer. 6 μL of EGFR kinase at the corresponding concentration (final concentration: 0.006 ng/μL) was added to the compound groups and the control group, while 6 μL of the Assay Buffer was added to the blank group, and then the compounds (with the concentration set to 1000 nM at the maximum, 4-fold dilution, 7 concentration gradients) were added using a nanoliter pipettor. The mixture was incubated at room temperature for 30 min, and then 4 μL of the mixture of ATP (final concentration: 5 μM) and ULight-poly GT (final concentration: 100 nM) was added. After incubation at room temperature for 2 h, 5 μL of EDTA (final concentration: 10 mM) was added to stop the reaction, and finally 5 μL of antibody (final concentration: 2 nM) was added. After incubation at room temperature for 1 h, signal values were detected at 665/615 nM, the four-parameter analysis was performed, the dose-response curves were fit, and IC50 was calculated.

BTK(WT) kinase = BTK(WT) kinase (Homo sapiens (Human), UniProt Q06187); assay: Inhibitory activity on BTK(WT) kinase; type: biochemical; conditions: ATP 10 μM
Sequence of BTK(WT) kinase (Q06187 whole entry): as the sequence (Q06187 whole entry C481S) above, with S481C counted along it
Experimental: The Assay Buffer was prepared, and the composition of the Assay Buffer was 50 mM Hepes (Gibco, 15630), 10 mM MgCl2, 2 mM DTT, 1 mM EGTA, and 0.010% Tween 20. BTK(WT) kinase (Life, PR5442A), ATP (Sigma, A7699), and ULight-poly GT (PE, TRF0100-M) working solutions were prepared using the Assay Buffer. EDTA and Eu-labeled anti-phosphotyrosine (PT66) antibody (PE, AD0069) working solutions were prepared using the Detection Buffer (PE, CR97-100). 6 μL of BTK(WT) kinase at the corresponding concentration (final concentration: 0.003 ng/L) was added to the compound groups and the control group, while 6 μL of the Assay Buffer was added to the blank group, and then the compounds (with the concentration set to 1000 nM at the maximum, 4-fold dilution, 7 concentration gradients) were each added using a nanoliter pipettor. The mixture was incubated at room temperature for 30 min, and then 4 μL of the mixture of ATP (final concentration: 10 μM) and ULight-poly GT (final concentration: 100 nM) was added. After incubation at room temperature for 2 h, 5 μL of EDTA (final concentration: 10 mM) was added to stop the reaction, and finally 5 μL of antibody (final concentration: 2 nM) was added. After incubation at room temperature for 1 h, signal values were detected at 665/615 nM, the four-parameter analysis was performed, the dose-response curves were fit, and IC50 was calculated.

[1] = In vitro liver microsomal stability, mouse; conditions: 0.5 mg/mL microsomes, NADPH, 37° C., 1 h
Experimental: Liver microsome incubation samples were prepared by mixing a PBS buffer (pH 7.4), a liver microsome solution (0.5 mg/mL), a test compound, and an NADPH+MgCl2 solution and incubated at 37° C. and 300 rpm for 1 h. Zero-hour samples were prepared by mixing a PBS buffer (pH 7.4), a liver microsome solution (0.5 mg/mL), and a test compound. An acetonitrile solution containing an internal standard was added to the samples, and supernatants were prepared by protein precipitation, diluted, and then assayed by LC/MS/MS.

SMILES | IC50 (TMD8-BTK(C481S) cells) [nM] | IC50 (BTK(C481S) kinase) [nM] | Dmax (BTK) [%] | IC50 (EGFR kinase) [nM] | IC50 (BTK(WT) kinase) [nM] | Mouse liver microsome Residuals at 60 min [1] [%]
CN1CCN([C@@H]2CCCN(c3cnc(C(N)=O)c(Nc4ccc(C5CCC6(CC5)CC(N5CCc7ccc8c(C9CCC(=O)NC9=O)noc8c7CC5)C6)cc4)n3)C2)C1=O (stereo partly drawn) [Compound 59] | 12 | 9.1 | > 90 | 279 | 5.4 | 47.0
CN1CCN([C@@H]2CCCN(c3cnc(C(N)=O)c(Nc4ccc(C5CCC6(CC5)CCN(CC5Cc7ccc8c(C9CCC(=O)NC9=O)noc8c7C5)CC6)cc4)n3)C2)C1=O (stereo partly drawn) [Compound 50] | 4 | 0.81 | > 90 | 69 | 0.42 | 63.1
